The text below walks through data of ChEMBL document CHEMBL1131074, “Conformational analysis of ketolide, conformations of RU 004 in solution and bound to bacterial ribosomes” (J Med Chem, 1998).

What all share (type): functional, organism-based
The subject of assay [1] is Escherichia coli. Put plainly: Pka1 value was evaluated in Escherichia coli MRE600 strain 70S ribosome (Observation 2).
Assay [2] deals with Escherichia coli. Put plainly: Pka2 value was evaluated in Escherichia coli MRE600 strain 70S ribosome (Observation 2).
Assay [3] concerns Escherichia coli. Briefly: Pka2 value was evaluated in Escherichia coli MRE600 strain 70S ribosome (Observation 1).
For assay [4], the system named is Escherichia coli. Put plainly: Pka1 value was evaluated in Escherichia coli MRE600 strain 70S ribosome (Observation 1).

Each structure is given as a SMILES string.

For `CC[C@H]1OC(=O)C(C)C(=O)[C@H](C)[C@@H](O[C@@H]2O[C@H](C)C[C@H](N(C)C)[C@H]2O)[C@@](C)(OC)C[C@@H](C)C(=O)[C@H](C)[C@H]2N(NCCCc3ccnc4ccccc34)C(=O)O[C@]12C` (some centres undefined), the values for the pKa1 in the assay with Escherichia coli [1] and in the assay with Escherichia coli [4] were 3 and 5, respectively. Moreover, the pKa2 with Escherichia coli [2] came to 6; in the assay with Escherichia coli [3], 8.
